Test results reported in the supplement of paper PMC10307832.

How the values were obtained:
Test in all cases: relative viability (nuclei count vs DMSO), 5 days (fraction); higher = more cells survive
LXF-289 = test system: LXF-289
Outline: (§1)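 Lung cancer cell lines in 1536-well plates got either a single drug or a fixed anchor-drug dose together with five library-drug doses (not always all listed) in √10 steps, by pin tool, on the day after seeding. Nuclei were counted after 5 days, and relative viability is the treated-to-vehicle ratio of nuclei counts. Values are medians of duplicate plates.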

NCI-H1793 = test system: NCI-H1793
Outline: as §1

NCI-H322M = test system: NCI-H322M
Outline: as §1

HCC-827 = test system: HCC-827
Outline: as §1

CAL-12T = test system: CAL-12T
Outline: as §1

NCI-H1650 = test system: NCI-H1650
Outline: as §1

201T = test system: 201T
Outline: as §1

NCI-H2405 = test system: NCI-H2405
Outline: as §1

BEN = test system: BEN
Outline: as §1

HCC-44 = test system: HCC-44
Outline: as §1

NCI-H2087 = test system: NCI-H2087
Outline: as §1

NCI-H1437 = test system: NCI-H1437
Outline: as §1

NCI-H1355 = test system: NCI-H1355
Outline: as §1

NCI-H3122 = test system: NCI-H3122
Outline: as §1

NCI-H1395 = test system: NCI-H1395
Outline: as §1

NCI-H647 = test system: NCI-H647
Outline: as §1

LCLC-103H = test system: LCLC-103H
Outline: as §1

SK-LU-1 = test system: SK-LU-1
Outline: as §1

NCI-H2023 = test system: NCI-H2023
Outline: as §1

LCLC-97TM1 = test system: LCLC-97TM1
Outline: as §1

NCI-H2228 = test system: NCI-H2228
Outline: as §1

NCI-H727 = test system: NCI-H727
Outline: as §1

HOP-62 = test system: HOP-62
Outline: as §1

RERF-LC-KJ = test system: RERF-LC-KJ
Outline: as §1

COc1cc(N2CCC(C(N)=O)CC2)ccc1Nc1nc(N)c(Cl)c(Nc2ccccc2S(=O)(=O)C(C)C)n1 [HG-5-88-01] + N=C(N)NC(=N)NCCc1ccccc1 [Phenformin] (partner 250 µM)
relative viability (LXF-289; first compound 0.04 µM): 0.565
relative viability (LXF-289; first compound 0.1265 µM): 0.589
relative viability (LXF-289; first compound 0.4 µM): 0.415
relative viability (LXF-289; first compound 1.265 µM): 0.51
relative viability (LXF-289; first compound 4 µM): 0.431
relative viability (NCI-H1793; first compound 0.1265 µM): 0.431
relative viability (NCI-H1793; first compound 0.4 µM): 0.375
relative viability (NCI-H1793; first compound 4 µM): 0.221
relative viability (NCI-H322M; first compound 0.04 µM): 0.793
relative viability (NCI-H322M; first compound 0.1265 µM): 0.669
relative viability (NCI-H322M; first compound 0.4 µM): 0.689
relative viability (NCI-H322M; first compound 4 µM): 0.704
relative viability (HCC-827; first compound 0.04 µM): 0.432
relative viability (HCC-827; first compound 0.1265 µM): 0.413
relative viability (HCC-827; first compound 0.4 µM): 0.384
relative viability (HCC-827; first compound 1.265 µM): 0.29
relative viability (HCC-827; first compound 4 µM): 0.249
relative viability (CAL-12T; first compound 0.04 µM): 0.543
relative viability (CAL-12T; first compound 0.1265 µM): 0.572
relative viability (CAL-12T; first compound 0.4 µM): 0.533
relative viability (CAL-12T; first compound 1.265 µM): 0.392
relative viability (CAL-12T; first compound 4 µM): 0.253
relative viability (NCI-H1650; first compound 0.04 µM): 0.452
relative viability (NCI-H1650; first compound 0.1265 µM): 0.386
relative viability (NCI-H1650; first compound 0.4 µM): 0.254
relative viability (NCI-H1650; first compound 1.265 µM): 0.236
relative viability (NCI-H1650; first compound 4 µM): 0.259
relative viability (201T; first compound 0.04 µM): 0.54
relative viability (201T; first compound 0.1265 µM): 0.452
relative viability (201T; first compound 0.4 µM): 0.479
relative viability (201T; first compound 1.265 µM): 0.547
relative viability (201T; first compound 4 µM): 0.397
relative viability (NCI-H2405; first compound 0.04 µM): 0.46
relative viability (NCI-H2405; first compound 0.1265 µM): 0.484
relative viability (NCI-H2405; first compound 0.4 µM): 0.469
relative viability (NCI-H2405; first compound 1.265 µM): 0.38
relative viability (NCI-H2405; first compound 4 µM): 0.432
relative viability (BEN; first compound 0.04 µM): 0.304
relative viability (BEN; first compound 0.1265 µM): 0.271
relative viability (BEN; first compound 0.4 µM): 0.274
relative viability (BEN; first compound 1.265 µM): 0.267
relative viability (BEN; first compound 4 µM): 0.285
relative viability (HCC-44; first compound 0.04 µM): 0.303
relative viability (HCC-44; first compound 0.1265 µM): 0.156
relative viability (HCC-44; first compound 0.4 µM): 0.201
relative viability (HCC-44; first compound 1.265 µM): 0.159
relative viability (HCC-44; first compound 4 µM): 0.0886
relative viability (NCI-H2087; first compound 0.04 µM): 0.523
relative viability (NCI-H2087; first compound 0.1265 µM): 0.49
relative viability (NCI-H2087; first compound 0.4 µM): 0.469
relative viability (NCI-H2087; first compound 1.265 µM): 0.342
relative viability (NCI-H2087; first compound 4 µM): 0.319
relative viability (NCI-H1437; first compound 0.04 µM): 0.37
relative viability (NCI-H1437; first compound 0.1265 µM): 0.335
relative viability (NCI-H1437; first compound 0.4 µM): 0.466
relative viability (NCI-H1437; first compound 1.265 µM): 0.37
relative viability (NCI-H1437; first compound 4 µM): 0.194
relative viability (NCI-H1355; first compound 0.04 µM): 0.487
relative viability (NCI-H1355; first compound 0.1265 µM): 0.493
relative viability (NCI-H1355; first compound 0.4 µM): 0.431
relative viability (NCI-H1355; first compound 1.265 µM): 0.455
relative viability (NCI-H1355; first compound 4 µM): 0.316
relative viability (NCI-H3122; first compound 0.04 µM): 0.216
relative viability (NCI-H3122; first compound 0.1265 µM): 0.17
relative viability (NCI-H3122; first compound 0.4 µM): 0.146
relative viability (NCI-H3122; first compound 1.265 µM): 0.129
relative viability (NCI-H3122; first compound 4 µM): 0.15
relative viability (NCI-H1395; first compound 0.04 µM): 0.423
relative viability (NCI-H1395; first compound 0.1265 µM): 0.422
relative viability (NCI-H1395; first compound 0.4 µM): 0.45
relative viability (NCI-H1395; first compound 1.265 µM): 0.449
relative viability (NCI-H1395; first compound 4 µM): 0.463
relative viability (NCI-H647; first compound 0.04 µM): 0.663
relative viability (NCI-H647; first compound 0.1265 µM): 0.595
relative viability (NCI-H647; first compound 0.4 µM): 0.624
relative viability (NCI-H647; first compound 1.265 µM): 0.608
relative viability (NCI-H647; first compound 4 µM): 0.643
relative viability (LCLC-103H; first compound 0.04 µM): 0.332
relative viability (LCLC-103H; first compound 0.1265 µM): 0.342
relative viability (LCLC-103H; first compound 0.4 µM): 0.311
relative viability (LCLC-103H; first compound 1.265 µM): 0.308
relative viability (LCLC-103H; first compound 4 µM): 0.302
relative viability (SK-LU-1; first compound 0.04 µM): 0.581
relative viability (SK-LU-1; first compound 0.1265 µM): 0.594
relative viability (SK-LU-1; first compound 0.4 µM): 0.507
relative viability (SK-LU-1; first compound 1.265 µM): 0.463
relative viability (SK-LU-1; first compound 4 µM): 0.288
relative viability (NCI-H2023; first compound 0.04 µM): 0.521
relative viability (NCI-H2023; first compound 0.1265 µM): 0.466
relative viability (NCI-H2023; first compound 0.4 µM): 0.473
relative viability (NCI-H2023; first compound 1.265 µM): 0.411
relative viability (NCI-H2023; first compound 4 µM): 0.34
relative viability (LCLC-97TM1; first compound 0.04 µM): 0.483
relative viability (LCLC-97TM1; first compound 0.1265 µM): 0.42
relative viability (LCLC-97TM1; first compound 0.4 µM): 0.394
relative viability (LCLC-97TM1; first compound 1.265 µM): 0.357
relative viability (LCLC-97TM1; first compound 4 µM): 0.204
relative viability (NCI-H2228; first compound 0.04 µM): 0.146
relative viability (NCI-H2228; first compound 0.1265 µM): 0.124
relative viability (NCI-H2228; first compound 0.4 µM): 0.174
relative viability (NCI-H2228; first compound 1.265 µM): 0.0974
relative viability (NCI-H2228; first compound 4 µM): 0.0828
relative viability (NCI-H727; first compound 0.04 µM): 0.554
relative viability (NCI-H727; first compound 0.1265 µM): 0.484
relative viability (NCI-H727; first compound 0.4 µM): 0.394
relative viability (NCI-H727; first compound 1.265 µM): 0.416
relative viability (NCI-H727; first compound 4 µM): 0.352
relative viability (HOP-62; first compound 0.04 µM): 0.662
relative viability (HOP-62; first compound 0.1265 µM): 0.65
relative viability (HOP-62; first compound 0.4 µM): 0.654
relative viability (HOP-62; first compound 1.265 µM): 0.725
relative viability (HOP-62; first compound 4 µM): 0.718
relative viability (RERF-LC-KJ; first compound 0.04 µM): 0.421
relative viability (RERF-LC-KJ; first compound 0.1265 µM): 0.4
relative viability (RERF-LC-KJ; first compound 0.4 µM): 0.407
relative viability (RERF-LC-KJ; first compound 1.265 µM): 0.371
relative viability (RERF-LC-KJ; first compound 4 µM): 0.241
